Tested on: p21 mRNA
Test: Radiation-induced p21 mRNA induction in heparinized whole blood incubated with dietary supplements (FIG. 5)
Type: cell-based, human
Settings: heparinized whole blood of a single individual, EGC 10 μM, rLA 10 μg/mL, Cur 1 μM; for radiation-induced p21 expression: 1 hour at 37° C. with supplement, 1 Gy ionizing radiation, another 2 hours at 37° C.; for p21 levels on control blood (no radiation) / background p21 levels: incubated with supplement at 37° C., without radiation
Procedure: The protocol for measuring mRNA levels employed in this example was as follows. The assay procedure consists of 3 major steps: 1) leukocyte isolation and lysis on filterplates, 2) mRNA isolation, reverse primer hybridization, and cDNA synthesis in oligo(dT)-immobilized microplates, and 3) real time quantitative PCR. In brief, filterplates were placed over collection plates, and 150 μL 5 mmol/L Tris, pH 7.4, was applied to wet the filter membranes. Following centrifugation at 120×g for 1 min at 4° C. to remove solution from the filterplates, 50 μL of well-mixed blood samples were applied to each well and immediately centrifuged at 120×g for 2 min at 4° C., followed by washing of each well with 300 μL phosphate buffered saline (PBS) once with centrifugation at 2000×g for 5 min at 4° C. Then, 60 μL stock lysis buffer (see below), supplemented with 1% 2-mercaptoethanol (Bio Rad), 0.5 mg/mL proteinase K (Pierce), 0.1 mg/mL salmon sperm DNA (5 Prime Eppendorf/Brinkmann), 0.1 mg/mL E. coli tRNA (Sigma), […] each of specific reverse primers, and 10^7 molecules/mL of synthetic RNA34 as an internal standard, were applied to the filterplates, followed by incubation at 37° C. for 10 min. The filterplates were then placed over oligo(dT)-immobilized microplates (GenePlate, RNAture), and centrifuged at 2000×g for 5 min at 4° C. Following overnight storage at 4° C., the microplates were washed with 100 μL plain lysis buffer 3 times, and then with 150 μL wash buffer (0.5 mol/L NaCl, 10 mmol/L Tris, pH 7.4, 1 mmol/L EDTA) 3 times at 4° C. The cDNA was directly synthesized in each well by adding 30 μL buffer containing 1×RT-buffer (50 mmol/L KCl, 10 mmol/L Tris-HCl, pH 8.3, 5.5 mmol/L MgCl2, no dithiothreitol), 1.25 mmol/L each of dNTP, 4 units rRNasin, and 80 units of MMLV reverse transcriptase (Promega) (without primers), and incubation at 37° C. for 2 hours. The resultant 4 μL cDNA was directly transferred to 384-well PCR plates, to which 5 μL TaqMan universal master mix (Applied Biosystems) and 1 μL oligonucleotide cocktail (15 μmol/L each of forward and reverse primer, and 3-6 μmol/L TaqMan probe) were applied, and PCR was conducted in a PRISM 7900HT (Applied Biosystems), with one cycle of 95° C. for 10 min followed by 45 cycles of 95° C. for 30 sec, 55° C. for 30 sec, and 60° C. for 1 min. Each gene was amplified in separate wells. The cycle threshold (Ct), which was the cycle of PCR to generate certain amounts of PCR products (fluorescence), was determined using analytical software (SDS, Applied Biosystems). PCR was also conducted directly in the GenePlate using an iCycler (BioRad). […] First, heparinized whole blood was incubated with various dietary supplements at 37° C. for 1 hour (2 tubes for each compound). Then one tube was exposed to 1 Gy of ionizing radiation, then both tubes were incubated for another 2 hours at 37° C. The p21 mRNA was quantitated as described above. […] In FIG. 5, each data point is the mean ±standard deviation of p21 mRNA with ([…]) or without (◯) 1 Gy radiation. […] Data points surrounded by a circle indicate p<0.05.

| SMILES | radiation-induced p21 expression | p21 levels on control blood (no radiation) / background p21 levels |
| --- | --- | --- |
| COc1cc(/C=C/C(=O)CC(=O)/C=C/c2ccc(O)c(OC)c2)ccc1O [curcumin] | enhanced | increased |
| O=C(O[C@@H]1Cc2c(O)cc(O)cc2O[C@@H]1c1cc(O)c(O)c(O)c1)c1cc(O)c(O)c(O)c1 [epigallocatechin gallate] | significantly enhanced | did not show any changes |
| CCCCC/C=C\C/C=C\C/C=C\CCCCC(=O)O [γ-linoleic acid] | enhanced | increased |
